How the values were obtained:
[1] = tested on: PSTPIP tyrosine phosphorylation; test: Tyrosine phosphorylation of endogenous PSTPIP in Baf3 cells; format: cell-based, murine
Method: Baf3 cells were lysed in 1% Triton, 50 mM HEPES. 10% glycerol and 5 mM EDTA containing 1 μg/ml aprotinin, PMSF, leupeptin and pepstatin were 1 mM Sodium Vanadate and 10 mM Iodoacetic acid. Cells were treated with 0.1 mM Pervanadate for 4 hours before lysis. Immunoprecipitations were performed in the vanadate-containing lysis buffer using 1 μg/ml anti-PSTPIP polyclonal antibody and 400 μg of lysate protein at 4° C. overnight. Western blots were performed using 1 μg/ml affinity purified anti-PSTPIP or 1:5000 dilution of commercial 4G10 anti-phosphotyrosine monoclonal (Upstate Biotech). Signal was detected by HRPO-ECL reagents (Pierce). The C221-S mutant was as previously described (Cheng et al., (1996) supra). The PTP HSCF D197-A mutant was generated using PCR. Mutagenesis primer D197A.F ([…]) (SEQ ID NO:24), corresponding to nucleotide 591, and primer D197A.R ([…]) (SEQ ID NO:25) which corresponds to the stop codon, were used in PCR to generate a fragment that could be cut with Mscl and XbaI. pRK.HA.38 WT, a plasmid which encoded the wild type enzyme under the control of the cytomegalovirus promoter (Cheng et al., (1996) supra), was digested with Clal and Mscl and the resulting 600 bp fragment was ligated with the Mscl-Xbal PCR fragment into the Clal and Xbal sites of the pRK.tkneo. […]

[2] = target: T1, interaction between PTP HSCF and PSTPIP (Mus musculus, UniProt P97814); test: Peptide inhibition of in vitro binding of PSTPIP to GST-PTP HSCF fusion; set-up: species or system murine; conditions: GST-PST-rich+CTH PTP HSCF precipitating in vitro translated PSTPIP, varying amounts of peptide
T1 construct: made in house; host or cells: GST fusion: E. coli DH5-alpha; PSTPIP: in vitro transcription/translation in rabbit reticulocyte lysate (Promega TnT)
T1 sequence (P97814 1-415): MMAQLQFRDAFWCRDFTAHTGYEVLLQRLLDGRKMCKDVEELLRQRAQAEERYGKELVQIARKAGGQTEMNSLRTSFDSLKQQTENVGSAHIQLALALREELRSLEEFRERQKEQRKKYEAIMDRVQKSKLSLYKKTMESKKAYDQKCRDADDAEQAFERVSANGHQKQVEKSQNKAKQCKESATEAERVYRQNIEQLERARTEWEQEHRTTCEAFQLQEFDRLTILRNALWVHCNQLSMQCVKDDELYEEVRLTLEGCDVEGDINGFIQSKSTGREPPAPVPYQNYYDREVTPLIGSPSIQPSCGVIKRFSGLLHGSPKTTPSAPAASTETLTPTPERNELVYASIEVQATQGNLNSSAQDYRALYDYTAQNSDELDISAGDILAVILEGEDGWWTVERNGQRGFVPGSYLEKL
Method: The binding was carried out according to the method of Wong and Johnson (Wong et al., J. Biol. Chem. 271(35):20981-20984 (1996)). Briefly, 1 μg of plasmid with either the PSTPIP protein or PTP HSCF under the control of the Sp6 promoter was in vitro transcribed/translated using the Promega™ TnT Rabbit Reticulocyte™ system. Samples were diluted in 50 mM HEPES, pH 7.2, 1% triton X 100, 10% glycerol, 100 mM NaCl, 5 mM EDTA and 2 μg/ml each of leupeptin, pepstatin, aprotinin, and PMSF. […] This was reacted for 1 hour at 4° C. and then the resin washed 6 times in HEPES/Triton binding buffer before SDS gel electrophoresis. The peptides were synthesized on an automated Milligen 9050 Peptide Synthesizer using standard solid phase chemistry with FMOC protected amino acids on a p-alkoxybenzyl alcohol resin. Dried peptides were re-suspended in the HEPES/Triton Binding buffer at a concentration of 10 mg/ml. Peptide inhibition was performed by adding the peptide first to the in vitro translation product and then the GST-fusion followed by the GSH-Sepharose. […]
In vitro binding analyses between various PTP HSCF and PST PIP constructs were performed as previously described (Spencer et al, (1997), supra). […] Samples were than reacted with GST fusion proteins at various concentrations, and the bound proteins were centrifuged using glutathione-sepharose beads and analyzed on SDS polyacrylamide gels. […]

| Compound | tyrosine phosphorylation of endogenous PSTPIP [1] | blocking of the PTP HSCF-PSTPIP interaction by peptide [2] |
| --- | --- | --- |
| [O]=[V]([O-])([O-])[O-] [vanadate] | significantly enhanced |  |
| GGVLRSISVPAPPTLPMADT [PXXP-CONTROL] |  | completely unable to block the interaction |

Source: patent US6887705B1, “Tyrosine phosphorylated cleavage furrow-associated proteins (PSTPIPs)” (Genentech, Inc., priority 1997, dated 2005)
